Experimental findings from paper PMC3541360 (2013) are described below.

Structures are written as SMILES.

Experiment [1] relates to MNSG4 (oligo TrMNS-I) (DNA, G4) TGGGTCTGAGGGAGGAGGGGCTGGGGGC
Description: fluorescent intercalator displacement (thiazole orange). As to conditions: 60 mM K+; 10 mM potassium cacodylate pH 7.4, 50 mM KCl; 0.25 µM DNA, 0.50 µM thiazole orange displaced.

For experiment [2] the test system is unchanged. Description: CD melting, 295 nm. As to conditions: 100 mM K+; 10 mM Tris-HCl pH 7.4; 5 µM DNA, 10 µM compound; absolute Tm, free DNA 71.4±0.5 °C.
The test system of experiment [3] is -80 G4 (oligo Tr-80-I) (DNA, G4) CGGGGGCGCGTGAGGGGCGGGGTGGGC
The experiment in a line: fluorescent intercalator displacement (thiazole orange). To be noted: 60 mM K+; 10 mM potassium cacodylate pH 7.4, 50 mM KCl; 0.25 µM DNA, 0.50 µM thiazole orange displaced.

In experiment [1], `[Cl-].[Cl-].[Cl-].[Cl-].[Cu+2].[Cu+2].c1ccc(CN(CCOc2cc(-c3ccccn3)nc(-c3ccccn3)c2)Cc2ccccn2)nc1` came in with an MSN1DC50 of 0.31 µM. In addition, in experiment [2], the “Tm (with ligand)” value came to 86.2±2.1 °C. For the same molecule, the “−80 G4DC50” value in experiment [3] is reported as 0.19 µM.

In experiment [1], `[Cl-].[Cl-].[Pt+2].[Pt+2].c1ccc(CN(CCOc2cc(-c3ccccn3)nc(-c3ccccn3)c2)Cc2ccccn2)nc1` displayed an MSN1DC50 of 0.39 µM. The “−80 G4DC50” value in experiment [3] is 2.22 µM.

In turn, `[Pt+2].[S-]CCN1CCCCC1.c1ccc(-c2cc(OCCN3CCOCC3)cc(-c3ccccn3)n2)nc1` came in with an MSN1DC50 in experiment [1] of 0.76 µM. Moreover, the “−80 G4DC50” value in experiment [3] came out at 0.55 µM.
